The nature of data set [1]: Permeability of the compound by measuring lambda maximum incubated for 18 hrs by PAMPA method. Type of data set: ADME. To be noted: read-out: permeability.
Data set [2] concerns the target T1, Fatty-acid amide hydrolase 1 (Homo sapiens, UniProt O00519).
T1 sequence (O00519 whole entry): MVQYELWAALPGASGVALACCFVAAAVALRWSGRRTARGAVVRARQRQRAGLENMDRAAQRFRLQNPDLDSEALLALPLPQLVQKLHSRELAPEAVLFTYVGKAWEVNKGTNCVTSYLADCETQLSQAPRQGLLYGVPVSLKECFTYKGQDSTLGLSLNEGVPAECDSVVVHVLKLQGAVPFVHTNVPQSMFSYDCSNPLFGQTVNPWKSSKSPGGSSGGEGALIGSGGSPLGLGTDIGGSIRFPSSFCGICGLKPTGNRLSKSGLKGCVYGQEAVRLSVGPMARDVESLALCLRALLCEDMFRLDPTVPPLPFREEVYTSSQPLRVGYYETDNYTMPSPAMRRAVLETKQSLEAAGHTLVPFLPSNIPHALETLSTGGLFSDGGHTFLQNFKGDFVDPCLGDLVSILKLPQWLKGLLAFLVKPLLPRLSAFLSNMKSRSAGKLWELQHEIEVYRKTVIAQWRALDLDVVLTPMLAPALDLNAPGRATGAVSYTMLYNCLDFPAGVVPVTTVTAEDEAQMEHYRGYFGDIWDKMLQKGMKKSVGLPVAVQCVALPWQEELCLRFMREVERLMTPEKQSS
Put plainly: Inhibition of FAAH (unknown origin) by fluorescence based method.

Another data set has as its target T2, Monoglyceride lipase (Homo sapiens, UniProt Q99685).
T2 sequence (Q99685 whole entry): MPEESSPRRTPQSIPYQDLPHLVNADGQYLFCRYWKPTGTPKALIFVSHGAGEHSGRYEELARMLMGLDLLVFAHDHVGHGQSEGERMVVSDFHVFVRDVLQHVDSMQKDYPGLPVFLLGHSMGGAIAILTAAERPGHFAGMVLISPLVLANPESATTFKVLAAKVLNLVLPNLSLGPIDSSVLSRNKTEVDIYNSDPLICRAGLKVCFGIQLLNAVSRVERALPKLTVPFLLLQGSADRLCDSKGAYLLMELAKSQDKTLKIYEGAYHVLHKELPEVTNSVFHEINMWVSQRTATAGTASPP
Description: Inhibition of MAGL (unknown origin) by fluorescence based method.

The target in data set [3] is T3, Monoglyceride lipase (Homo sapiens) (UniProt Q99685).
T3 sequence (whole entry): T2 sequence (Q99685 whole entry)
Put plainly: Inhibition of recombinant human MAGL assessed as blockage of […] labelling at 100 uM by ABPP assay.

The target of data set [4] is T4, Fatty-acid amide hydrolase 1 (Mus musculus, UniProt O08914).
T4 sequence (O08914 whole entry): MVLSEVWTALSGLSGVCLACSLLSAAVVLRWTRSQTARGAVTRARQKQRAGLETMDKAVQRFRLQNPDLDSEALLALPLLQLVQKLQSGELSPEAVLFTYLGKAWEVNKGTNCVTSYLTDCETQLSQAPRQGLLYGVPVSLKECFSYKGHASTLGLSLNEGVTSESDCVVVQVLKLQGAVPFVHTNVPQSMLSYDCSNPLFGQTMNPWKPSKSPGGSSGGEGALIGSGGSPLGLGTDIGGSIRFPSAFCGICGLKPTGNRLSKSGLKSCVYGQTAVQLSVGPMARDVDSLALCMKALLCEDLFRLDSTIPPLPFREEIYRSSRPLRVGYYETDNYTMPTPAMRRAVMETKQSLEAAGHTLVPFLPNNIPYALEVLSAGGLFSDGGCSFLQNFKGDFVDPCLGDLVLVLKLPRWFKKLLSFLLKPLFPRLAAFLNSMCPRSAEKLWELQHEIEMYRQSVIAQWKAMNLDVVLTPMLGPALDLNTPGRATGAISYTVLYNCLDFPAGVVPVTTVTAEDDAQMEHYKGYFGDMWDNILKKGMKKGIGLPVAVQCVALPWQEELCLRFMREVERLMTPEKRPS
Put plainly: Inhibition of mouse brain FAAH by competitive ABPP assay. Type of data set: tissue-based.

For data set [5], the target named is T5, Fatty-acid amide hydrolase 1 (Homo sapiens) (UniProt O00519).
T5 sequence (whole entry): T1 sequence (O00519 whole entry)
Description: Inhibition of recombinant human FAAH assessed as blockage of […] labelling at 100 uM by ABPP assay.

In data set [6] the target is T6, Monoglyceride lipase (Rattus norvegicus) (UniProt Q8R431).
T6 sequence (whole entry): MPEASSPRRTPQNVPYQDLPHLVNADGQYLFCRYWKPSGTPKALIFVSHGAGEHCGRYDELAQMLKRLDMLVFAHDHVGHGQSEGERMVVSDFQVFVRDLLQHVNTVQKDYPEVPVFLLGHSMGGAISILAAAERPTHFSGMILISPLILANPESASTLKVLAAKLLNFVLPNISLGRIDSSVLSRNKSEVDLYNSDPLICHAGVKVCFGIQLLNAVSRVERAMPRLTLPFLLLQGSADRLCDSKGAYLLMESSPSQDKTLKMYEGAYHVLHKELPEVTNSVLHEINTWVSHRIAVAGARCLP
Put plainly: Inhibition of MAGL in rat eye homogenate assessed as blockage of […] labelling by ABPP assay. In kind it is tissue-based.

Data set [7] has as its target T7, Fatty-acid amide hydrolase 1 (Rattus norvegicus) (UniProt P97612).
T7 sequence (whole entry): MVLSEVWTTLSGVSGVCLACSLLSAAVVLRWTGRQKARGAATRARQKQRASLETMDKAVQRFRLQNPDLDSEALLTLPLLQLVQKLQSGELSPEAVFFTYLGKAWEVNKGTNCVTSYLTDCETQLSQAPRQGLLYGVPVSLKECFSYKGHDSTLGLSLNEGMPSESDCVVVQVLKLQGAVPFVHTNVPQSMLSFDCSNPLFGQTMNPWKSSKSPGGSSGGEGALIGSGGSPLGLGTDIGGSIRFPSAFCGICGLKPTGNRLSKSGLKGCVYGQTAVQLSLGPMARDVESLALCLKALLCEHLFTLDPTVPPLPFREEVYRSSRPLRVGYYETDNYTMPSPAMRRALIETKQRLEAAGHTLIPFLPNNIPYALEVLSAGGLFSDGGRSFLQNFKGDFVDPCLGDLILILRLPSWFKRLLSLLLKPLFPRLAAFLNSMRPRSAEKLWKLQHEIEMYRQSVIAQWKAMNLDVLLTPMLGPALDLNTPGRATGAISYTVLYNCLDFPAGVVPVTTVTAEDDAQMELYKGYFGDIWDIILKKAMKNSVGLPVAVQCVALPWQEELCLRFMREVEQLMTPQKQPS
Put plainly: Inhibition of FAAH in rat eye homogenate assessed as blockage of […] labelling by ABPP assay. In kind it is tissue-based.

These results are taken from ChEMBL document CHEMBL5143693, “Design and synthesis of endocannabinoid enzyme inhibitors for ocular indications” (Bioorg Med Chem Lett, 2022).

Active and inactive are the calls of the source. No cut-off for these calls is given here.

A word on the IC50: it is the concentration that gives 50% inhibition. Regarding `O=C(Oc1ccc([N+](=O)[O-])cc1)N1CCN(S(=O)(=O)c2ccc(Oc3ncc(C(F)(F)F)cc3Cl)cc2)CC1`, in data set [1], the Papp at 18 h was found to be 0.23 ×10⁻⁶ cm/s. The same compound showed a 50% inhibitory concentration (IC50) in data set [2] of 2950 nM.

Turning to `O=C(Oc1ccc([N+](=O)[O-])cc1)N1CCN(S(=O)(=O)c2ccc(Oc3ccc(Cl)cc3)cc2)CC1`, the half-inhibitory concentration (IC50) on Monoglyceride lipase was 2060 nM; in data set [2], 153 nM. In data set [1], the Papp at 18 h came out at 0.24 ×10⁻⁶ cm/s.

Consider `O=C(Oc1ccc([N+](=O)[O-])cc1)N1CCN(S(=O)(=O)c2ccc(-c3ccc(Cl)c(Cl)c3)cc2)CC1`, for which the Papp at 18 h in data set [1] was 0.28 ×10⁻⁶ cm/s. In addition, the concentration for half-maximal inhibition (IC50) in data set [2] turned out to be 382 nM.

Consider `O=C(Oc1ccc([N+](=O)[O-])cc1)N1CCN(S(=O)(=O)c2ccc(Oc3ccccc3Cl)cc2)CC1`, for which the Papp at 18 h in data set [1] was determined as 0.27 ×10⁻⁶ cm/s. Further, the IC50 in data set [2] was 1150 nM.

As to `O=C(Oc1ccc([N+](=O)[O-])cc1)N1CCN(S(=O)(=O)c2ccc(Oc3ccc(Cl)c(Cl)c3)cc2)CC1`, the Papp at 18 h in data set [1] was found to be 0.31 ×10⁻⁶ cm/s. Also, half-maximal inhibition in data set [2] (IC50) was put at 317 nM.

For the compound `O=C(Oc1ccc([N+](=O)[O-])cc1)N1CCN(S(=O)(=O)c2ccc(-c3ccccc3)cc2)CC1`, in data set [1], the Papp at 18 h was found to be 0.19 ×10⁻⁶ cm/s. The compound further registered a 50% inhibitory concentration (IC50) in data set [2] of 437 nM.

One may read the inhibition as the relative decrease from the control value, in per cent. In the case of `O=C(Oc1ccc([N+](=O)[O-])cc1)N1CCN(S(=O)(=O)c2ccc3ccccc3c2)CC1`, the inhibition in data set [3] and in data set [5] was 100% each time. Also, the IC50 on Monoglyceride lipase came out at 284 nM; in data set [4], 10.5 nM. Further, the Papp at 18 h in data set [1] worked out at 0.26 ×10⁻⁶ cm/s. For the same compound, the inhibition entry in data set [6] and in data set [7] was “Active” in each case.

For `O=C(Oc1ccc([N+](=O)[O-])cc1)N1CCN(S(=O)(=O)c2ccc(Oc3cccc(Cl)c3)cc2)CC1`, the Papp at 18 h in data set [1] worked out at 0.23 ×10⁻⁶ cm/s. Further, the midpoint of inhibition in data set [2], the IC50, lay at 380 nM.

For `O=C(Oc1ccc([N+](=O)[O-])cc1)N1CCN(S(=O)(=O)c2ccc(C3CCCCC3)cc2)CC1`, in data set [1], the Papp at 18 h came to 0.24 ×10⁻⁶ cm/s. The compound further had an IC50 in data set [2] of 333 nM.

In the case of `O=C(Oc1ccc([N+](=O)[O-])cc1)N1CCN(S(=O)(=O)c2ccc(Oc3ccccc3)cc2)CC1`, the Papp at 18 h in data set [1] was found to be 0.23 ×10⁻⁶ cm/s. 322 nM corresponded to half-maximal inhibition in data set [2] (IC50).

As to `CCCCc1ccc(S(=O)(=O)N2CCN(C(=O)Oc3ccc([N+](=O)[O-])cc3)CC2)cc1`, the inhibition result in data set [3], in data set [5], in data set [6] and in data set [7] was “Active” each time. In addition, the figures for the 50% inhibitory concentration (IC50) (on Monoglyceride lipase; in data set [2]) were 759 nM and 179 nM, respectively. The Papp at 18 h in data set [1] came to 0.26 ×10⁻⁶ cm/s.
